This is an account of results in patent US9062066B2, “Anti-inflammatory compound having inhibitory activity against multiple tyrosine kinases and pharmaceutical composition containing same” (KOREA INSTITUTE OF SCIENCE AND TECHNOLOGY, priority 2010, dated 2015).

Test [1] concerns NO synthesis in J744A.1 macrophage. In words: inhibition of nitric oxide (NO) synthesis in LPS-activated macrophages (Griess reagent). The settings on record: 10 μM compound, LPS, 24 hours, read-out: Inhibition (%) of NO synthesis. It counts as cell-based.
In test [2] the test system is TNF-α synthesis in J744A.1 macrophages. In words: inhibition of TNF-α synthesis in LPS-activated macrophages (ELISA). It counts as cell-based. The following applies: Macrophage; 10 μM compound, 100 ng/ml LPS, 6 hours; read-out: Inhibition (%) of TNF-α synthesis. Background: An ELISA detects its analyte on a solid surface through an enzyme-linked reagent.
Another test concerns the target c-Src tyrosine kinase (Homo sapiens (Human), UniProt P12931). In words: in vitro c-Src tyrosine kinase inhibition (32P-ATP, poly(D4Y)n substrate). It counts as biochemical. The following applies: 1 uM compound; read-out: % inhibition against c-Src.
The target in a further test is Hck tyrosine kinase (Homo sapiens (Human), UniProt P08631). In words: in vitro Hck tyrosine kinase inhibition. It counts as biochemical. The settings on record: 1 uM compound; read-out: % inhibition against Hck.
In the next test the target is DDR2 tyrosine kinase (Homo sapiens (Human), UniProt Q16832). In words: in vitro DDR2 tyrosine kinase inhibition (GST-fused kinase domain). It counts as biochemical. The settings on record: 1 uM compound; read-out: % inhibition against DDR2.
The next test has as its target DDR1 tyrosine kinase (Homo sapiens (Human), UniProt Q08345). As to the kind of experiment: in vitro DDR1 tyrosine kinase inhibition (GST-fused kinase domain). It counts as biochemical. The settings on record: 1 uM compound; read-out: % inhibition against DDR1.
In another test the test system is mouse skin fibroblast. As to the kind of experiment: inhibition of migration of activated fibroblast (scratch wound). It counts as cell-based. The settings on record: 0.5 uM compound, 10 ng/ml TGF-β1, 24 hours, read-out: Inhibition (%) of migration of activated fibroblast. On the procedure: The straight line of regular width was made using a micro pipette tip for a scratch wound on the mono-layer culture, and then the culture was exchanged to DMEM medium and incubated with 10 ng/ml of TGF-β1 in cell culture incubator of 37° C. for 24 hours. The cultured cells were fixed using formalin and stained with crystal violet. Photo-pictures were taken at 100× magnification in five location selected randomly in the scratched wound site of each stained culture dish and then the number of the cells moved into the scratched wound area was counted and averaged.

In another test the target is Fgr tyrosine kinase (Homo sapiens (Human), UniProt P09769). In words: in vitro Fgr tyrosine kinase inhibition. It counts as biochemical. The following applies: 1 uM compound; read-out: % inhibition against Fgr.
Another test has as its target Lyn tyrosine kinase (Homo sapiens (Human), UniProt P07948). As to the kind of experiment: in vitro Lyn tyrosine kinase inhibition. The settings on record: 1 uM compound; read-out: % inhibition against Lyn. It counts as biochemical.
Test [3] deals with α-smooth muscle actin protein expression in skin fibroblast cells. In words: inhibition of α-smooth muscle actin expression in fibroblast activated by type I collagen and TGF-β1 (western blotting). It counts as cell-based, Balb/C mouse. The settings on record: Mus musculus, 0.5 uM compound, 10 ng/ml TGF-β1, 48 hours, type I collagen, read-out: Inhibition (%) of α-smooth muscle actin increase. The text has this: When fibroblast, […] alpha smooth muscle cells are converted to myofibroblast by activation, one of characteristic features is that α-smooth muscle actin protein expression is increased. Also myoblast cells with the increased α-smooth muscle actin expression have a character of an increased migration. These phenomena appear together with the activation of inflammatory cells and the activated myoblast-type cells are known to contribute directly to the pathology of inflammatory diseases. […] In this experiment, the expression level of alpha smooth muscle actin can be quantificated by measuring the density of α-smooth muscle actin protein band with densitometer after developing the X-ray film of chemiluminescence signal in western blotting experiment.
On the technique in general: In western blotting, separated proteins are transferred to a membrane and probed.

Test [4] has as its system oxazolone-induced skin inflammation of Balb/C mouse ears. As to the kind of experiment: mouse skin inflammatory model induced by oxazolone (ear thickness). The following applies: 20 ul of 0.1% compound topical on ear, 36 hours after oxazolone. It counts as in vivo. As for the experimental part:
The compounds of the present invention were evaluated for their effective anti-inflammatory activity using a skin inflammatory animal model of 8 weeks old Balb/C mouse ears induced by oxazolone. […] After 4 days, the thickness of ear was measured using a caliper for the thickness value of ear before the induction of inflammation. […] After 36 hours, the thickness of ear was measured for the increased thickness induced by inflammation. […] The average value was obtained in each group (n=4).

Chain of Hck tyrosine kinase (P08631 whole entry, the tested form may be a part): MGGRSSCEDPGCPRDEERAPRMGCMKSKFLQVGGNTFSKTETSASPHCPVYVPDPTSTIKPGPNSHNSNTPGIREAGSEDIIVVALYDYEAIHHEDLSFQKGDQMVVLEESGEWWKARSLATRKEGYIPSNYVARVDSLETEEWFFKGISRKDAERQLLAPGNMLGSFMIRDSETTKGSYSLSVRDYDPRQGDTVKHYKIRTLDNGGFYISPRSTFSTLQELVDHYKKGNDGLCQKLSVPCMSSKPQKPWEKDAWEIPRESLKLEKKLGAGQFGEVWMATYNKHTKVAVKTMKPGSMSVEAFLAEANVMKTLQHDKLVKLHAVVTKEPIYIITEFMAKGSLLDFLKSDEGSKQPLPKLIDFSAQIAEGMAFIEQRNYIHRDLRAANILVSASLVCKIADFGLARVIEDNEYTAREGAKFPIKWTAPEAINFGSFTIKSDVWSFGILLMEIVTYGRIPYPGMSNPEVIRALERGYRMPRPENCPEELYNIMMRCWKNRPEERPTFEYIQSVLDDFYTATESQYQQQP
Chain of Fgr tyrosine kinase (P09769 whole entry): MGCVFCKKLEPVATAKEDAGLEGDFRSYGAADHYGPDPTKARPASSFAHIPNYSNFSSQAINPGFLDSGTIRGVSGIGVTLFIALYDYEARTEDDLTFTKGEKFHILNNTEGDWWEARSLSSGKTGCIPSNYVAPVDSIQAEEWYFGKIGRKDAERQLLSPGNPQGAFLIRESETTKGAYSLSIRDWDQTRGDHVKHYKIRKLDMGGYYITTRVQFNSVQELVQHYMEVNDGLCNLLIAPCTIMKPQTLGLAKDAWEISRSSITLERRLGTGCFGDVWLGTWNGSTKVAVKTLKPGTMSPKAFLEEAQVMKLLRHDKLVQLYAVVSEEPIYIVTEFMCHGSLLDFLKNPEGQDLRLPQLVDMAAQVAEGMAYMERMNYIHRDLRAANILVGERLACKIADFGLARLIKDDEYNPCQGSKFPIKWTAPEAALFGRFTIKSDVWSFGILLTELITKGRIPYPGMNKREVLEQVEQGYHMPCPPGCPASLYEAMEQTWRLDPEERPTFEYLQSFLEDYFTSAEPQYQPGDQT
Chain of DDR1 tyrosine kinase (Q08345 610-905): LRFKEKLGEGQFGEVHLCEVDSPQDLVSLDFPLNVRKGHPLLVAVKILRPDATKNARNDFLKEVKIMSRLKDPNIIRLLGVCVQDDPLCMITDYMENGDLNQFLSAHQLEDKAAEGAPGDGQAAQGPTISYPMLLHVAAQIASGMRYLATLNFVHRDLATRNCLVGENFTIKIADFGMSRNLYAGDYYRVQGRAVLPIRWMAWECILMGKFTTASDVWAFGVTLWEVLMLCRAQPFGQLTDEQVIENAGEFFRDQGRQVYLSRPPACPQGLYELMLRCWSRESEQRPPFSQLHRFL
Chain of c-Src tyrosine kinase (P12931 whole entry, looked up): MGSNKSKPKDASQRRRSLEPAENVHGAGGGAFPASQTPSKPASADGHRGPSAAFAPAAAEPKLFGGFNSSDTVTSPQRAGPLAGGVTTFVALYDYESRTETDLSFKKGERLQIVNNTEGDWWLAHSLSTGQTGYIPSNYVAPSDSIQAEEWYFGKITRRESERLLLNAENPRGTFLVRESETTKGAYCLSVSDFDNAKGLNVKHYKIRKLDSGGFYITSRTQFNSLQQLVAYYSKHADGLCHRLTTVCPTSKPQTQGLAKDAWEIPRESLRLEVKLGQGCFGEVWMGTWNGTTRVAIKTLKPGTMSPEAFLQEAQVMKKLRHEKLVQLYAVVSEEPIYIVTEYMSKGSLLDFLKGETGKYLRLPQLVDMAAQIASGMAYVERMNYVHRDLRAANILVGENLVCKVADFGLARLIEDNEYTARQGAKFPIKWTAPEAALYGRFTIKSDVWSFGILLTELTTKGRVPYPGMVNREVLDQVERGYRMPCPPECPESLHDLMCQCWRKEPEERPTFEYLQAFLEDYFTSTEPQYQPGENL
Chain of DDR2 tyrosine kinase (Q16832 563-849): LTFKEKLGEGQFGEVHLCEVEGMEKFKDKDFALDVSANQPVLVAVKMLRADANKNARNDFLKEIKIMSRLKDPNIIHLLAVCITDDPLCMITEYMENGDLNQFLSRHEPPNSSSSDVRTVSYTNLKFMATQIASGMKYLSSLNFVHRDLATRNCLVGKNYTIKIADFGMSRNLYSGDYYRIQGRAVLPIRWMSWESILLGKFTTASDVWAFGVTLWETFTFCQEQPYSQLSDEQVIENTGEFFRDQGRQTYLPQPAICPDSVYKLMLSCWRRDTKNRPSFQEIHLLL
Chain of Lyn tyrosine kinase (P07948 whole entry): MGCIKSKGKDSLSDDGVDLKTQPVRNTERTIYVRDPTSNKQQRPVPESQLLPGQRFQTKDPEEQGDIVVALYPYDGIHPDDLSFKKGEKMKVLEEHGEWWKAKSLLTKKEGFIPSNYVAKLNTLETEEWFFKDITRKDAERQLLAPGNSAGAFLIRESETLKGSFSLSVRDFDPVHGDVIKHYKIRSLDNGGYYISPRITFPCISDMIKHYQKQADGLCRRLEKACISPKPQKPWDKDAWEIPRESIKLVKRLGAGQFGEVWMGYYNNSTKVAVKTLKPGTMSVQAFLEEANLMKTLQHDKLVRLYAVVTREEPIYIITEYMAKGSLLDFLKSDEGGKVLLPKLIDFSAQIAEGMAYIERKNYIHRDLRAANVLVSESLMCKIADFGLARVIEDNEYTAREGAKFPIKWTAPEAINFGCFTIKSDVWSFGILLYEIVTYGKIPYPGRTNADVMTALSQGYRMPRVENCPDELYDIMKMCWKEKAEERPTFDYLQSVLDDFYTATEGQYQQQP

On to `CCN(CC)Cc1ccc(-c2cc3ncnc(Nc4cccc(O)c4)c3s2)cc1` [LCB 03-0037], for which the inhibition at 10 µM worked out at 93% in test [1] and 73% in test [2]. The inhibition at 1 µM at c-Src tyrosine kinase is greater than 80%; at Hck tyrosine kinase, greater than 80%; on DDR2 tyrosine kinase it was greater than 80%; at DDR1 tyrosine kinase it was greater than 80%; on Fgr tyrosine kinase it was greater than 70%; on Lyn tyrosine kinase, greater than 80%. The inhibition at 0.5 µM came to 37% in the test with mouse skin fibroblast and 55% in test [3]. In addition, the “Inhibition (%) of increase of ear thickness” value in test [4] is listed as 33%.
With `Oc1cccc(Nc2ncnc3cc(-c4ccc(CNC5CC5)cc4)sc23)c1` [LCB 03-0040], the figures for the inhibition at 10 µM in [1] and in test [2] were 93% and 84%, respectively. Besides, the inhibition at 1 µM on c-Src tyrosine kinase, on Hck tyrosine kinase, on DDR2 tyrosine kinase, at DDR1 tyrosine kinase, at Fgr tyrosine kinase and at Lyn tyrosine kinase was greater than 80% each time. Moreover, the inhibition at 0.5 µM amounted to 43% in the test with mouse skin fibroblast and 55% in test [3]. In addition, the “Inhibition (%) of increase of ear thickness” value in test [4] is reported as 31%.
On to `CC(C)CNCc1ccc(-c2cc3ncnc(Nc4cccc(O)c4)c3s2)cc1` [LCB 03-0041], for which the inhibition at 10 µM was 91% in [1] and 87% in [2]. Further, the inhibition at 1 µM at c-Src tyrosine kinase, at Hck tyrosine kinase, on DDR2 tyrosine kinase, at DDR1 tyrosine kinase, on Fgr tyrosine kinase and on Lyn tyrosine kinase was greater than 80% throughout. For the same compound, the results for the inhibition at 0.5 µM (with mouse skin fibroblast; in test [3]) were 39% and 66%, respectively. For the same compound, the “Inhibition (%) of increase of ear thickness” value in test [4] turned out to be 29%.
With `CCNCc1ccc(-c2cc3ncnc(Nc4cccc(O)c4)c3s2)cc1` [LCB 03-0042], the inhibition at 10 µM stood at 91% in test [1] and 98% in [2]. Also, the inhibition at 1 µM on c-Src tyrosine kinase, at Hck tyrosine kinase, on DDR2 tyrosine kinase, on DDR1 tyrosine kinase, at Fgr tyrosine kinase and on Lyn tyrosine kinase was greater than 80% in each case. Moreover, the inhibition at 0.5 µM turned out to be 46% in the test on mouse skin fibroblast and 69% in test [3]. The “Inhibition (%) of increase of ear thickness” value in [4] was 33%.
As to `C[C@@H]1CCC[C@H](C)N1Cc1ccc(-c2cc3ncnc(Nc4cccc(O)c4)c3s2)cc1.Cl` [LCB 03-0059, 3-(6-(4-(((2R,6S)-2,6-dimethylpiperidin-1-yl)methyl)phenyl)thieno[3,2-d]pyrimidin-4-ylamino)phenol], the results for the inhibition at 10 µM in [1] and in [2] were 88% and 74%, respectively. Also, the inhibition at 1 µM on c-Src tyrosine kinase was greater than 50%; on Hck tyrosine kinase, greater than 50%; on DDR2 tyrosine kinase, greater than 80%; on DDR1 tyrosine kinase it was greater than 80%; at Fgr tyrosine kinase it was greater than 50%; on Lyn tyrosine kinase it was greater than 50%. Further, the inhibition at 0.5 µM is 29% in the test with mouse skin fibroblast and 56% in test [3]. In test [4], the “Inhibition (%) of increase of ear thickness” value worked out at 59%.
As for `Cl.Oc1cccc(Nc2ncnc3cc(-c4cccc(CN5CCCCC5)c4)sc23)c1` [LCB 03-0060, 3-(6-(3-(piperidin-1-ylmethyl)phenyl)thieno[3,2-d]pyrimidin-4-ylamino)phenol], the inhibition at 10 µM was 93% in [1] and 78% in test [2]. For the same compound, the inhibition at 1 µM on c-Src tyrosine kinase, at Hck tyrosine kinase, at DDR2 tyrosine kinase, at DDR1 tyrosine kinase, on Fgr tyrosine kinase and at Lyn tyrosine kinase was greater than 80% each time. The inhibition at 0.5 µM in the test with mouse skin fibroblast was 42%; in [3] it was 65%. For the same compound, the “Inhibition (%) of increase of ear thickness” value in test [4] was determined as 66%.
In the case of `CN1CCN(Cc2cccc(-c3cc4ncnc(Nc5cccc(O)c5)c4s3)c2)CC1.Cl` [LCB 03-0061, 3-(6-(3-((4-methylpiperazin-1-yl)methyl)phenyl)thieno[3,2-d]pyrimidin-4-ylamino)phenol], the inhibition at 10 µM in test [1] came to 92%; in [2] it was 91%. Also, the inhibition at 1 µM on c-Src tyrosine kinase, on Hck tyrosine kinase, on DDR2 tyrosine kinase, on DDR1 tyrosine kinase, at Fgr tyrosine kinase and on Lyn tyrosine kinase was greater than 80% in each case. In addition, the inhibition at 0.5 µM in the test on mouse skin fibroblast is 44%; in [3] it was 68%. Besides, the “Inhibition (%) of increase of ear thickness” value in [4] came out at 55%.
As for `Cl.Oc1cccc(Nc2ncnc3cc(-c4cccc(CN5CCCC5)c4)sc23)c1` [LCB 03-0062, 3-(6-(3-(pyrrolidin-1-ylmethyl)phenyl)thieno[3,2-d]pyrimidin-4-ylamino)phenol], the inhibition at 10 µM in [1] came out at 93%; in test [2], 82%. Besides, the inhibition at 1 µM on c-Src tyrosine kinase, on Hck tyrosine kinase, at DDR2 tyrosine kinase, on DDR1 tyrosine kinase, on Fgr tyrosine kinase and at Lyn tyrosine kinase was greater than 80% throughout. In addition, the inhibition at 0.5 µM in the test with mouse skin fibroblast worked out at 41%; in [3], 64%. Besides, the “Inhibition (%) of increase of ear thickness” value in [4] was 57%.
Consider `CCN(CC)Cc1cccc(-c2cc3ncnc(Nc4cccc(O)c4)c3s2)c1.Cl` [LCB 03-0063, 3-(6-(3-((diethylamino)methyl)phenyl)thieno[3,2-d]pyrimidin-4-ylamino)phenol], for which the inhibition at 10 µM came out at 89% in test [1] and 85% in test [2]. Also, the inhibition at 1 µM on c-Src tyrosine kinase, at Hck tyrosine kinase, on DDR2 tyrosine kinase, at DDR1 tyrosine kinase, on Fgr tyrosine kinase and on Lyn tyrosine kinase was greater than 80% each time. Besides, the inhibition at 0.5 µM was determined as 36% with mouse skin fibroblast and 61% in test [3]. In addition, the “Inhibition (%) of increase of ear thickness” value in test [4] is 51%.
Consider `Cl.Oc1cccc(Nc2ncnc3cc(-c4cccc(CN5CCNCC5)c4)sc23)c1` [LCB 03-0064, 3-(6-(3-(piperazin-1-ylmethyl)phenyl)thieno[3,2-d]pyrimidin-4-ylamino)phenol], for which the inhibition at 10 µM in test [1] worked out at 79%; in test [2], 73%. The inhibition at 1 µM on c-Src tyrosine kinase, at Hck tyrosine kinase, on DDR2 tyrosine kinase, on DDR1 tyrosine kinase, on Fgr tyrosine kinase and on Lyn tyrosine kinase was greater than 80% in each case. Besides, the inhibition at 0.5 µM is 41% in the test on mouse skin fibroblast and 66% in [3]. In test [4], the “Inhibition (%) of increase of ear thickness” value worked out at 63%.
`CCNCc1cccc(-c2cc3ncnc(Nc4cccc(O)c4)c3s2)c1.Cl` [LCB 03-0065, 3-(6-(3-((ethylamino)methyl)phenyl)thieno[3,2-d]pyrimidin-4-ylamino)phenol]: the inhibition at 10 µM in test [1] worked out at 84%; in test [2], 79%. The inhibition at 1 µM on c-Src tyrosine kinase is greater than 80%; on Hck tyrosine kinase, greater than 80%; on DDR2 tyrosine kinase, greater than 70%; on DDR1 tyrosine kinase it was greater than 70%; at Fgr tyrosine kinase, greater than 80%; on Lyn tyrosine kinase, greater than 80%. Further, the inhibition at 0.5 µM with mouse skin fibroblast was found to be 35%; in test [3] it was 58%. Besides, in test [4], the “Inhibition (%) of increase of ear thickness” value was found to be 52%.
